Assay results reported in patent US7790766B2, “Pharmaceutical compositions of short-acting sedative hypnotic agent” (Theravance, Inc., priority 2003, dated 2010).

Assay: Solubility in aqueous media
Format: physicochemical

CCCOC(=O)Cc1ccc(OCC(=O)N(CC)CC)c(OCC)c1 [Compound 1, [4-[(N,N-diethylcarbamoyl)methoxy]-3-ethoxyphenyl]acetic acid propyl ester]
Solubility in aqueous media: poorly, if, at all soluble
